{"source": "paper PMC6394990", "about": "“Detailed characterization of the solution kinetics and thermodynamics of biotin, biocytin and HABA binding to avidin and streptavidin” (PLoS ONE, 2019)", "target": "T1, streptavidin (SAV) (Streptomyces avidinii, UniProt P22629)", "T1 construct": "purchased Sigma Aldrich (St. Louis, MO)", "T1 sequence (P22629 25-183)": "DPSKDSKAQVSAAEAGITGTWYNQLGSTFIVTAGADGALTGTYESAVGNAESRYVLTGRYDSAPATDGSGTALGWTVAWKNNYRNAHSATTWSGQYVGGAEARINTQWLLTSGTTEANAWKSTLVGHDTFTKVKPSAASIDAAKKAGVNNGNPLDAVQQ", "test": "Stopped-flow association kinetics of dye-labeled biotin probes binding to streptavidin (F(t), rF(t); Arrhenius plots/global fitting)", "procedure": "These reactions were carried out in a buffered solution of 10 mM Tris-HCl, 100 mM KCl, 2.5 mM MgCl2 and 1 mM CaCl2 at pH 8 and only AV-BcO reactions included pH 9 and 10. […] The deglycosylation of AV (for comparative association reactions) was carried out using the provided standard protocol with endoglycosidase H [47], both with and without incubation of a denaturant solution (2% SDS and 1M 2-mercaptoethanol).\nThe reactions were collected with the SF instrument, described previously. […] The AC(t) and DC(t) data were baseline corrected before obtaining the signal ratio (Eq 4) as a function of time (ρt).\nThe constant AGain is the instrumental amplitude gain and was evaluated by solving ρ(t) using the known steady state anisotropy (rss) of the complexes which is equivalent to the r(t) at t = ∞; and H, obtained from the equivalent grating factor (G) for the filters and photo multiplier tubes in the SF. For the probes used in here G was 0.82 and H = (1-G)/(1+G) = 0.099. Knowing Again and H, the AC(t) and DC(t) signals can be solved for r(t) and F(t) (Eqs 4 and 5) and the normalized fluorescence, F¯(t) , and corrected fluorescence anisotropy, rF¯(t), were obtained when F¯(0) and rF¯(0) were scaled to 1 at t = 0.\nThe F¯(t) (Eq 6) is equivalent to (I||) + 2 (I⊥) and proportional to quantum yield (QYi), molar absorptivity (εi) and to the formation or disappearance of the emitting species Xi(t); and rF¯(t) including the steady state anisotropies (rss) of each fluorescent species (Eq 7).\nThe possible reaction models were discriminated by the squared residuals of the observed and calculated association traces of both fluorescence and anisotropy fluorescence signals, F¯(t) and rF¯(t) , respectively.", "key": {"[1]": {"details": "SAV, average over the dye-labeled B7 probes, used for SAV-B7"}, "[2]": {"details": "SAV, average over the dye-labeled B7 probes, used for SAV-B7, listed as B"}}, "note": "Where “and” joins values, the source holds several entries; their conditions need not be identical. Equal entries are not always repeated.", "data": [{"smiles": "O=C(O)CCCC[C@@H]1SC[C@@H]2NC(=O)N[C@@H]21", "note": "[B7, d-biotin]", "values": [{"measurement": "Eaon + (-∆H°)", "setting": "SAV-B", "result": "30.9 ± 2.5", "unit": "kcal/mol"}, {"measurement": "∆G°ǂ + (-∆G°)", "setting": "SAV-B", "result": "22.2 ± 1.0", "unit": "kcal/mol"}, {"measurement": "∆S°ǂ + (-∆S°)", "setting": "SAV-B", "result": "27.7 ± 2.0", "unit": "cal/mol°K"}, {"measurement": "ΔE = Ea^Forward-Ea^Backward", "setting": "SAV-B7, column 3 minus 4", "result": "-23.4 ± 4.0", "unit": "kcal/mol"}, {"measurement": "ΔG° ^ǂ, Forward -ΔG° ^ǂ, Backward", "setting": "SAV-B7, column 3 minus 4", "result": "-19.6 ± 2.5", "unit": "kcal/mol"}, {"measurement": "ΔS° ^ǂ, Forward -ΔS° ^ǂ, Backward", "setting": "SAV-B7, column 3 minus 4", "result": "-18.1 ± 4.5", "unit": "cal/mol°K"}, {"measurement": "fold slower than 10^9 M^-1s^-1 (diffusion limited)", "setting": "SAV, 25°C", "result": "13-400 X"}, {"measurement": "ΔG^ǂ, Forward", "setting": "[1]", "result": "4.0 ± 0.6 kcal/mol and 4.0 kcal/mol"}, {"measurement": "ΔS^ǂ, Forward", "setting": "[1]", "result": "6.7 ± 1.6 cal/°K·mol and 6.7 cal/°K·mol"}, {"measurement": "Ea^Forward", "setting": "[2]", "result": "6.0 ± 1.0", "unit": "kcal/mol"}, {"measurement": "ΔS^ǂ, Forward", "setting": "[2]", "result": "6.7 ± 2.0", "unit": "cal/°K·mol"}]}]}
